Assays:
[1] = cited from earlier work
[2] = Biodistribution in several tissues in rabbits, NaI scintillation counter; format: in vivo; conditions: 3 hours after injection, ear vein
Experimental: The complex of Example 1 was injected in the ear vein of a series of rabbits. The rabbits were killed 3 hours after injection. The radiation of several tissues was quantified by counting using a NaI scintillation counter.

[3] = Biodistribution in several tissues in rats, NaI scintillation counter; format: in vivo; conditions: 2 hours, ~1 mCi, tail vein
Experimental: The Tc-complex of Example 1 (50 μl, ~1 mCi) was injected into the tail vein of a series of rats. The animals were killed after 2 hours and the radiation from several tissues was quantitated using a NaI scintillation counter.

Compound | accumulation by bone ([1]; after intravenous administration) | biological half life ([1]; in vivo) | Ratio Femur/blood [2] | Ratio Femur/muscle [2] | radiation in Blood [2] | radiation in Femur [2] | radiation in Liver [2] | radiation in Muscle [2] | Percent Dose/Organ, Blood [3] | Percent Dose/Organ, Skeleton [3] | Percent Dose/Organ, Urine [3] | Ratio Bone/blood [3] | Ratio Bone/muscle [3]
[85Sr] [Sr-85, Strontium-85] | rapidly accumulated by bone | ~ 800 days |  |  |  |  |  |  |  |  |  |  | 
methylenediphosphonate [Tc-MDP] |  |  | 44 | 114 | 0.13 | 5.7 | 0.11 | 0.05 | 0.27 Percent Dose/Organ | 39.4 Percent Dose/Organ | 50.9 Percent Dose/Organ | 146 | 150
